In ChEMBL document CHEMBL1157423, “Structural and stereochemical studies of alpha-methylene-gamma-lactone-bearing cembrane diterpenoids from a south china sea soft coral Lobophytum crassum” (2008) one finds inhibition of growth data, which are given here for 4 compounds.

One experiment relates to P388. Put plainly: Cytotoxicity against mouse P388 cells at 10 uM/L. Conditions: read-out: GI. It counts as functional.
Another experiment has as its system A549. Put plainly: Cytotoxicity against human A549 cells at 10 uM/L. It counts as functional. Conditions: read-out: GI.

Structures are written as SMILES.

With `C=C1C(=O)O[C@@H]2[C@@H]1C[C@H]1O[C@]1(CO)CC/C=C(\C)CC/C=C(\C)[C@@H]2O` [SINULAROLIDE C], in the experiment with P388, the inhibition of growth at 10 µM was 63.8%. As to `C=C1C(=O)O[C@@H]2[C@@H]1C[C@H]1O[C@]1(CO)CC/C=C(\C)CC/C=C(\C)[C@H]2O` [SINULAROLIDE B], the inhibition of growth at 10 µM with P388 came to 100%. Turning to `C=C1C(=O)O[C@@H]2[C@@H]1C/C=C(\CO)CC/C=C(\C)CC/C=C(\C)[C@H]2O` [PRESINULAROLIDE B], in the experiment on A549, the inhibition of growth at 10 µM is 64%. For the compound `C=C1C(=O)O[C@H]2C/C(C)=C/CC/C(C)=C/CC/C(CO)=C/C[C@H]12` [3-DEHYDROXYLPRESINULAROLIDE B], the figures for the inhibition of growth at 10 µM with A549 and with P388 were 95.7% and 100%, respectively.
